Assay results from patent US5928666A, “Crystalline form of estradiol and pharmaceutical formulations comprising same” (Cygnus Inc., priority 1997, dated 1999).

Tests used:
[1] = Flux of estradiol from equilibrated acrylate adhesive matrices through a 10 mil Silastic membrane (Example 7, Table 2); assay type: in vitro ADME; settings: for Flux: 20 wt % acrylate matrix, 10 mil Silastic membrane, 32° C.; for average flux: average from Table 2 data
Description: Consequently, Crystal X provides an advantage in the preparation of pharmaceutical formulations comprising Crystal X especially transdermal drug delivery matrices. When Crystal X crystals are prepared in transdernal drug delivery formulations,the inherent increase in activity due to the higher thermodynamic activity of the Crystal X crystal versus E2-HH provides for increased flux. For example, equilibrated matrices containing Crystal X and E2-HH crystals were prepared in substantial accordance with the teaching of Example 7 herein and assayed for permeation through a Silastic membrane.
Measurement of estradiol flux was determined by drug flux through a 10 mil Silastic membrane in a modified Franz diffusion cells in substantial accordance with the following procedure. The adhesive matrix systems were peeled off the polyester release liner and placed on top of the Silastic membrane. Gentle pressure was applied to insure full contact between the drug adhesive layer and membrane. The membrane with the prototype system was then mounted carefully between the donor and the receiver compartments. The receiver compartment was filled nanopure water and the temperature was maintained at 32° C.±1° C. throughout the experimental period. Samples of receiver content was withdrawn and replaced with fresh buffer. Samples were assayed by HPLC.
Membrane flux (mg/cm^2 /hr) was determined by evaluating the cumulative flux of drug through a Silastic membrane over a given period of time and dividing by the time period. After steady state had been established, the flux values corresponding to steady state were averaged to obtain the flux value.
20 wt % acrylate adhesive matrices were prepared in accordance with Example 1. 20 % Crystal X was prepared in accordance with Example 3. The laminates were allowed to equilibrate for a period of 8 weeks to insure complete crystal structureation. Flux was determined as permeation through a 10 mil Silastic membrane as described above. The cumulative release of estradiol into the receiver was determined by HPLC method described above. The average flux over the period was calculated as the cumulative amount of drug in receiver divided by cumulative time.

[2] = cited from earlier work

Structure (SMILES) | Flux ([1]; 2.5 hrs) [μg/cm^2 /hr] | Flux ([1]; 8.375 hrs) [μg/cm^2 /hr] | Flux ([1]; 17.625 hrs) [μg/cm^2 /hr] | Flux ([1]; 27.75 hrs) [μg/cm^2 /hr] | average flux [1] [μg/cm^2 /hr] | flux value at the end of the flux profile relative to E2-HH ([1]; higher than for E2-HH, 32° C. wet) | thermodynamic activity ([1]; versus E2-HH) | blood level in hormone replacement therapy ([2]; level the normal dosage is to produce, hormone replacement therapy) | blood level for treatment of osteoporosis ([2]; level utilized, osteoporosis)
C[C@]12CC[C@@H]3c4ccc(O)cc4CC[C@H]3[C@@H]1CC[C@@H]2O [Crystal X, estra-1, 3, 5(10)-triene-3, 17β-diol] | 0.132 | 0.238 | 0.216 | 0.220 | 0.22 | about 2 times | increased thermodynamic activity with respect to E2-HH |  | 
C[C@]12CC[C@@H]3c4ccc(O)cc4CC[C@H]3[C@@H]1CC[C@@H]2O [E2-HH] | 0.080 | 0.139 | 0.142 | 0.146 | 0.14 |  |  |  | 
C[C@]12CC[C@@H]3c4ccc(O)cc4CC[C@H]3[C@@H]1CC[C@@H]2O [estradiol, estra-1, 3, 5(10)-triene-3, 17β-diol] |  |  |  |  |  |  |  | about 30 ng/L | approximately 40 ng/L
